Experiments:
[1] = test system: RelA; experiment: Western blot of RelA in MPC-5 cells treated with AFB1; format: cell-based
Experimental: To investigate whether RelA is involved in the reduction of the expression level of miR-9 in glomerular podocytes by AFB1, relative protein expression levels of RelA in glomeruli at 0, 2, and 4 weeks treated with AFB1 of 0.75 mg/kg, and MPC-5 cells treated with AFB1 of 5, 10, 20 uM were detected, respectively, by adopting a Western blot manner.

[2] = test system: RelA; conditions: mouse, in vivo, 0.75 mg/kg
[3] = target: RelA (Mus musculus, UniProt Q04207); experiment: IP-MS of proteins interacting with RelA in MPC-5 cells; format: cell-based
Chain of RelA (Mus musculus, UniProt Q04207) (Q04207 whole entry, looked up): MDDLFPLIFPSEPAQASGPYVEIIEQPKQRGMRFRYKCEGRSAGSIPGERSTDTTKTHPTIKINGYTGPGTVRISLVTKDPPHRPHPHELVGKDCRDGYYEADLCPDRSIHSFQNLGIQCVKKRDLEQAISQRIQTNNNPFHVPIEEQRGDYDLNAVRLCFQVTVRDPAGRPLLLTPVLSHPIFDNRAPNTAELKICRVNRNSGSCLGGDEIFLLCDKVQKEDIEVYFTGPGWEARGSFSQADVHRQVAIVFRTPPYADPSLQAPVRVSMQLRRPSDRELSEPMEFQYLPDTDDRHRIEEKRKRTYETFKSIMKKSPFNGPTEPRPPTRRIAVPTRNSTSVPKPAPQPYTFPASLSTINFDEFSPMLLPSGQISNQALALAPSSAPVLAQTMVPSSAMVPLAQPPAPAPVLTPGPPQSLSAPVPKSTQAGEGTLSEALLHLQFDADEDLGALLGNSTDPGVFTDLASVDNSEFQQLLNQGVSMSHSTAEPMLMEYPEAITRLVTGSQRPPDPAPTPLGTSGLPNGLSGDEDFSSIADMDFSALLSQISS
Experimental: For the analysis of RelA-binding proteins, IP-MS was used to detect proteins interacting with RelA. After incubating THE MPC-5 cells with RelA antibody overnight at 4° C., MPC-5 lysates were mixed with Protein A/G agarose beads (Amersham Biosciences) and then sodium dodecyl sulfate-polyacrylamide gel electrophoresis (SDS-PAGE) analysis and Caumas blue staining were performed for isolation of target proteins. Then, protein samples were sent to Suzhou Mass-elife Biotechnology Co. Ltd (Suzhou, China) for further analysis. For liquid chromatography-mass spectrometry (LC-MS) analysis, proteins were re-solubilized in a mixture of acetonitrile and water, and sample data was analyzed using an ultra-high-performance liquid chromatography (UHPLC) system coupled to a high-resolution mass spectrometer in Mass-elife Biotech Co. Ltd. of Suzhou (Suzhou, China). Identified proteins were analyzed for abundance using Byonic 2.13.17 (Protein Metrics, California, USA) to retrieve MS raw files on the uniport human protein database.

[4] = test system: miR-9; experiment: qRT-PCR of miR-9 in MPC-5 treated with AFB1; format: cell-based
Experimental: • (1) glomeruli (n=6) were treated with AFB1 of 0.75 mg/kg at 0, 2, and 4 weeks; • (2) MPC-5 (n=6) was treated with AFB1 of 5, 10, and 20μ M; • (3) Relative expression levels of miR-9 in the glomeruli treated with (1) and in the MPC-5 treated with (2) were detected by adopting a qRT-PCR manner, respectively. u6 RNA was used as an internal reference for miRNA, a sequence of a forward primer of U6 gene was shown in SEQ ID NO.1 in Table 1, and a sequence of a reverse primer of U6 gene was shown in SEQ ID NO.2. A sequence of a forward primer of miR-9 was shown in SEQ ID NO.3, a sequence of a reverse primer of miR-9 was shown in SEQ ID NO.4, and a sequence of a primer of a stem-loop sequence that is used to increase a length of a miR-9 reverse transcription product was shown in SEQ ID No.45.

[5] = target: RelA / TRIM7 (Mus musculus, UniProt Q04207); format: cell-based
Chain of RelA / TRIM7 (Q04207 whole entry, looked up): as above

[6] = test system: miR-9; conditions: mouse, in vivo, 0.75 mg/kg
[7] = test system: RelA / miR-9 promoter; format: cell-based
[8] = test system: glomeruli; experiment: rAAV9-CAG-GFP-miR-9 transfection of AFB1-treated mouse, glomeruli readouts; format: in vivo; conditions: miR-9 increased via rAAV9-CAG-GFP-miR-9
Experimental: Relevant agents include fluorescently labeled Gr-1 antibody (CST), fluorescently labeled IFN-γ antibody (CST) or CD86 antibody (fluorescent secondary antibody: goat anti-rabbit IgG) (Abcam) and CD68 antibody (fluorescently secondary antibody: goat anti-rabbit IgG) (Abcam), and the rest of the same agents as above.
To understand the ability of miR-9 in down-regulating the CXCR4/TXNIP/NLRP3 inflammatory vesicle pathway during podocytes inflammation induced by AFB1, a 4-week-old mouse was treated with AFB1 of 0.75 mg/kg, and rAAV9-CAG-GFP-miR-9 or CAG-GFP luciferase control vector was transfected into the treated mouse, and an expression level of miR-9 in glomeruli after transfection was detected by qRT-PCR.

[9] = test system: 3′-UTR of CXCR4 gene; experiment: luciferase reporter (pMIR) with CXCR4 3′-UTR, co-transfection in MPC-5 cells; format: cell-based; conditions: FIG. 1C
Source text: To validate the binding of miR-9 to the CXCR4 gene, 3′-UTR targeting sequences of a wild-type CXCR4 gene and a mutant-type CXCR4 gene (target site ACCAAAG was mutated to ACGGCGC) were constructed into a luciferase reporter vector pMIR to obtain recombinant luciferase reporter vectors of the wild-type and the mutant-type. Subsequently, miR-9 and negative control miRNAs (a sequence of a primer as shown in SEQ ID NO.7 and SEQ ID NO.8) were co-transfected with the recombinant luciferase reporter vector of the wild-type or the mutant type into MPC-5 cells, and results were as shown in FIG. 1C. […] The control miRNAs were unable to targetedly bind to either the 3′-UTR of the wild-type CXCR4 or the 3′-UTR of the mutant-type CXCR4, and the fluorescence values were […].

Substance | p-RelA/RelA in MPC-5 cells [1] | p-RelA/RelA in glomeruli [2] | TRIM7 among RelA-interacting proteins [3] | expression level of miR-9 in cells (MPC-5) [4] | binding of RelA and TRIM7 [5] | expression level of RelA protein [5] | ubiquitination of RelA [5] | expression level of miR-9 in glomeruli [6] | RelA binding in the miR-9 promoter region [7] | secretion of IL-1β in glomeruli ([8]; AFB1-treated mouse, ELISA) | secretion of IL-6 in glomeruli ([8]; AFB1-treated mouse, ELISA) | secretion of TNF-α in glomeruli ([8]; AFB1-treated mouse, ELISA) | inflammatory cell infiltration in glomeruli ([8]; AFB1 for 4 weeks, HE staining and flow cytometry) | luciferase fluorescence values, wild-type CXCR4 3′-UTR reporter ([9]; co-transfected into MPC-5 cells) | luciferase fluorescence values, mutant-type CXCR4 3′-UTR reporter ([9]; target site ACCAAAG mutated to ACGGCGC, MPC-5 cells)
Aflatoxin B1 [AFB1] | significant reduction | significant reduction | significantly enriched | significantly reduced | promoted the binding | down-regulated | increased the ubiquitination | significantly reduced | reduced RelA binding | – | – | – | – | – | –
miR-9: mmu-miR-9-5p MIMAT0000142; nucleotide sequence shown in SEQ ID No. 5 (UCUUUGGUUAUCUAGCUGUAUGA; chemistry not given here) | – | – | – | – | – | – | – | – | – | decreased secretion | decreased secretion | decreased secretion | attenuated inflammatory cell infiltration | relative decrease | unchanged
